How the values were obtained:
MYXV [1] = test: MYXV reporter gene expression (GFP/TdTomato) and foci by fluorescence microscopy in human cancer cell lines
Colo205 xenograft tumors = test: Colo205 xenograft tumor model in NSG mice; assay type: in vivo
Method: (§1) To test the ability of selinexor to enhance MYXV replication in vivo, a xenograft tumor model was established in immunodeficient NSG mice. Human Colo205 (FIG. 7) and HT29 (FIG. 8) cells were injected subcutaneously on both sides of the flank to generate tumors (FIG. 7A). After the tumors size reached between 100-200 mm^3 (2-3 weeks), mice were separated into treatment groups to have approximately equal average tumor sizes. Animals (n=5) were treated with PBS (oral and IT right tumor), selinexor (oral, 15 mg/kg), vMyx-Fluc (wild-type MYXV expressing Firefly luciferase and TdTomato; IT left tumor, 1×10^7 FFU), or selinexor (oral) and vMyx-Fluc (IT left tumor). After 48 hours post-treatment mice were imaged using an IVIS system for luciferase expression. […] Subsequently, mice received 2nd and 3rd doses of selinexor and a second IT injection of MYXV in the same tumor. […] Additionally, tumor burden was measured on both flanks during the course of treatment (FIG. 7F, FIG. 7G, FIG. 8E, and FIG. 8F).
(§2) Animal Studies: Male and female NSG mice were purchased from Jackson laboratory at 6-8 weeks of age. Animals were housed under sterile conditions. The animals were acclimatized for at least seven days before tumor implantation or any experimental procedures. Cells (1×10^6/mouse in 100 μL PBS) were subcutaneously injected into the flanks of NSG mice. When the average tumor volumes reached 50-200 mm^3, the mice were randomized into different treatment groups of five or six animals such that each treatment group had approximately the same average tumor volume. Tumor volume was measured two or three times per week as follows: volume=(length×width^2)/2. When the tumor volume reached 1.5-2 cm^3 animals were euthanized and tumors were collected for histology or processed for virus titration. To detect MYXV replication in the tumor bed luciferin was injected via IP delivery and bioluminescence images taken (Xenogen IVIS 2000).

MYXV [2] = test: MYXV infection of 3D spheroid cultures of human cancer cells (GFP/TdTomato fluorescence); assay type: cell-based, myxoma virus
From the text: In vitro three-dimensional (3D) cell culture allows cells to contact each other and form a platform representing in vivo tumor masses (Lv, D., et al., 2017, Oncology Letters, 14:6999-7010). As an initial test whether selinexor can enhance MYXV replication in tumor masses, a 3D cell culture using type 1 collagen was established. The semi-permissive and non-permissive human cancer cells PANC-1 (FIG. 6A), MDA-MB435 (FIG. 6C), HT29 (FIG. 6E), and Colo205 (FIG. 6G) were used to form 3D spheroids in 96 well plates. After several days of incubation, the cells formed spheroids.
After reaching a desirable size, spheroids were mock-treated or treated with different concentrations of selinexor (e.g., 0.1 μM, 1 μM) for one hour then infected with vMyx-GFP-TdTomato (1×10^7 FFU) in the presence of selinexor.
Spheroid Generation and Virus Infection: Different cancer cell lines were grown and maintained as previously described and used for spheroid generation within 2-5 passages. 96-well plates were prepared with rat tail collagen I to form the surface for spheroid culture. On the day of cell seeding for spheroid generation, the cells were dissociated with TrypLE, the TrypLE neutralized with fresh complete media, the cells spun down, and resuspended in fresh complete media. After making a single cell suspension, cells were counted using a Countess II automated cell counter and 1000 cells in 100 μL were plated on the surface of the collagen matrix. The cells were observed daily for spheroid formation. After 5-7 days, when spheroids reached the desired size, they were treated with selinexor and infected with vMyx-GFP-TdTomato.

PANC-1 cells = test: Click-iT EdU cell proliferation assay; assay type: cell-based, human; conditions: PANC-1 cells treated for 24 hours; selinexor or MYXV
Method: Selinexor was previously reported to reduce the proliferation of cancer cells, however, viral infection also stops cell proliferation (Zheng, Y., et al., 2014, Cancer Chemotherapy and Pharmacology, 74:487-495; Johnston, J. B., et al., 2005, Journal of Virology, 79:10750-10763). As such, the effect of selinexor and MYXV on human cancer cells was examined alone and in combination. To this end, two cell proliferation assays were performed. In the first methods, DNA synthesis was measured by the incorporation of EdU (5-ethynyl-2′-deoxyuridine), a nucleoside analog of thymidine, into DNA during active DNA synthesis (FIG. 4A) (Chehrehasa F., et al., 2009, Journal of Neuroscience Methods, 177:122-130). Using this method in uninfected PANC-1 cells, EdU incorporation was detected in more than 50% of dividing cells (FIG. 4B and FIG. 4C). When cells were treated with selinexor or MYXV for 24 hours, on the other hand, a significant reduction in proliferation was observed (20% EdU-positive cells). […]
Click-iT EdU Cell Proliferation Assay: To visualize and measure cell proliferation, a Click-iT™ EdU cell proliferation assay (Thermo Fisher) was used according to the manufacturer's instructions. […] Fluorescence images were obtained using a fluorescence microscope and fluorescence signals were analyzed using ImageJ software.

HT29 xenograft tumors = test: HT29 xenograft tumor model in NSG mice; assay type: in vivo
Method: as §1, §2

[3] = 48 hours after first vMyx-Fluc IT injection, selinexor oral 15 mg/kg
[4] = both flanks, selinexor oral 15 mg/kg, vMyx-Fluc IT 1×10^7 FFU

O=C(/C=C\n1cnc(-c2cc(C(F)(F)F)cc(C(F)(F)F)c2)n1)NNc1cnccn1 [selinexor]
GFP and TdTomato reporter protein expression (MYXV [1]; PANC-1, Colo205, MDA-MB435, HCT116, selinexor 0.1-10 μM pre-treatment 1 h, vMyx-GFP-TdTomato MOI 5, 48 h post-infection): Enhanced GFP and TdTomato reporter protein expression
foci formation in restricted human cancer cell lines (MYXV [1]; infected at low MOI, selinexor treatment): formation of small foci
cell death caused by selinexor alone (MYXV [1]; selinexor 10 μM or higher, all cancer cell lines tested): enhanced cell death
luciferase expression (IVIS) vs virus alone (Colo205 xenograft tumors; [3]): significantly higher levels of luciferase
luciferase signal (IVIS) vs virus alone (Colo205 xenograft tumors; after second treatment): significantly enhanced level of luciferase signal
tumor burden compared to PBS or MYXV-only (Colo205 xenograft tumors; [4]): significantly reduced tumor burden
GFP (early/late) and TdTomato (late) expression in spheroids by fluorescence microscopy (MYXV [2]; PANC-1, MDA-MB435, HT29, Colo205 spheroids, selinexor 0.1 or 1 μM, vMyx-GFP-TdTomato 1×10^7 FFU): enhanced
virus penetration into spheroids (MYXV [2]; selinexor plus MYXV compared to MYXV infection alone): greater penetration into the spheroid interior
quantification of GFP fluorescence in spheroids (MYXV [2]; selinexor-treated vs untreated infected spheroids, 72-96 h post-infection): significant increase in the level of GFP expression
EdU-positive cells (PANC-1 cells): 20%
luciferase expression (IVIS) vs virus alone (HT29 xenograft tumors; [3]): significantly higher levels of luciferase
luciferase signal (IVIS) vs virus alone (HT29 xenograft tumors; after second treatment): significantly enhanced level of luciferase signal
tumor burden compared to PBS or MYXV-only (HT29 xenograft tumors; [4]): significantly reduced tumor burden

— patent US20250249056A1, “CANCER THERAPIES COMPRISING A NUCLEAR EXPORT INHIBITOR AND AN ONCOLYTIC VIRUS” (priority 2022, published 2025)
